We go through 6 molecules from ChEMBL document CHEMBL1201862, “PubChem BioAssay data set” (2004).

Each structure is given as a SMILES string.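 These data come from cells grown in 96-well plates and exposed to compound for 48 hours at five concentrations. Abbreviation: GI50, concentration required for 50% inhibition of growth.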 Calls of active or inactive are those of the source. No stated cut-off is given here; in the data, active = GI50 up to about 1.1 µM and inactive = higher.

Some test systems named below: COLO 205; OVCAR-3; DU-145; SNB-19; SK-MEL-28; HCC 2998; HOP-62; SW-620; NCI-H522; HCT-116; SR; MDA-MB-435; HT-29; NCI/ADR-RES; UACC-62; RPMI-8226; SNB-75; CAKI-1; MDA-MB-231; 786-0.
Common to all, as to assay: growth of human tumour cells (NCI), 48 h

With `COc1cc(/C=C2/CCCc3ccccc3C2=O)cc(OC)c1OC`, the GI50 is 18.2 µM (inactive) in the assay with COLO 205; 19.2 µM (inactive) in the assay with OVCAR-3; 11.9 µM (inactive) with DU-145; 32.5 µM (inactive) with SNB-19; 22 µM (inactive) in the assay on SK-MEL-28; 22.5 µM (inactive) with HCC 2998. Besides, the GI50 was 24.2 µM (inactive) in the assay on HOP-62; 22.4 µM (inactive) in the assay on SW-620; 11.3 µM (inactive) in the assay with NCI-H522; 6.65 µM (inactive) with HCT-116; 2.74 µM (inactive) in the assay on SR; 7.85 µM (inactive) in the assay on MDA-MB-435. The GI50 was 17.5 µM (inactive) in the assay on HT-29; 9.2 µM (inactive) in the assay with NCI/ADR-RES; 16.4 µM (inactive) with UACC-62; 2.63 µM (inactive) with RPMI-8226; 12.4 µM (inactive) in the assay on SNB-75; 18.8 µM (inactive) with CAKI-1. For the same molecule, the values for the GI50 in the assay on MDA-MB-231 and in the assay on 786-0 were 15.6 µM (inactive) and 18.3 µM (inactive), respectively.

On to `Cn1cccc1-c1ccc(-c2ccc(CO)[se]2)[se]1`, for which the GI50 with COLO 205 is 11.4 µM (inactive); in the assay on OVCAR-3 it was 4.02 µM (inactive); in the assay on DU-145, 17.5 µM (inactive); with SNB-19, 17.8 µM (inactive); in the assay with SK-MEL-28 it was 16.6 µM (inactive); in the assay on HCC 2998 it was 2.02 µM (inactive). The GI50 is 21.6 µM (inactive) with HOP-62; 2.15 µM (inactive) with SW-620; 10.2 µM (inactive) with NCI-H522; 6.34 µM (inactive) in the assay with HCT-116; 17.1 µM (inactive) with SR; 4.91 µM (inactive) with MDA-MB-435. Moreover, the GI50 in the assay on HT-29 was 12.6 µM (inactive); with NCI/ADR-RES it was 22.8 µM (inactive); with UACC-62 it was 9.57 µM (inactive); in the assay with RPMI-8226, 7.98 µM (inactive); in the assay with SNB-75, 6.08 µM (inactive); in the assay on CAKI-1 it was 0.188 µM (active). Moreover, the GI50 in the assay on MDA-MB-231 is 29.8 µM (inactive); in the assay on 786-0, 14.2 µM (inactive).

As for `O=C(O)c1cc(/N=C/c2ccccc2O)cc(C(=O)O)c1`, the GI50 in the assay with COLO 205 was > 100 µM (inactive); in the assay on OVCAR-3 it was 15.3 µM (inactive); in the assay with DU-145, > 100 µM (inactive); in the assay with SNB-19, > 100 µM (inactive); in the assay with SK-MEL-28 it was > 100 µM (inactive); with HCC 2998 it was > 100 µM (inactive). For the same molecule, the GI50 in the assay on HOP-62, in the assay on SW-620, with NCI-H522, in the assay with HCT-116, in the assay with SR and with MDA-MB-435 was > 100 µM (inactive) throughout. For the same molecule, the GI50 with HT-29, in the assay on NCI/ADR-RES, in the assay with UACC-62, in the assay on RPMI-8226, with SNB-75 and in the assay with CAKI-1 was > 100 µM (inactive) each time. In addition, the GI50 in the assay on MDA-MB-231 and with 786-0 was > 100 µM (inactive) in each case.

For `c1ccc(COC[C@H]2C3OCC([C@H](OCc4ccccc4)[C@H]3OCc3ccccc3)N2Cc2ccccc2)cc1` (stereo not given in full), the GI50 was > 57 µM (inactive) in the assay on COLO 205; 17.4 µM (inactive) in the assay on OVCAR-3; > 48.2 µM (inactive) with DU-145; > 49.3 µM (inactive) with SNB-19; > 53.2 µM (inactive) in the assay on SK-MEL-28; > 53 µM (inactive) in the assay on HCC 2998. In addition, the GI50 was > 55.2 µM (inactive) in the assay with HOP-62; > 57 µM (inactive) in the assay on SW-620; 13.9 µM (inactive) in the assay on NCI-H522; 23.5 µM (inactive) in the assay with HCT-116; 26.8 µM (inactive) with SR; > 55.2 µM (inactive) with MDA-MB-435. For the same molecule, the GI50 was 46.6 µM (inactive) in the assay on HT-29; > 47.8 µM (inactive) with NCI/ADR-RES; 29.7 µM (inactive) in the assay on UACC-62; 15.8 µM (inactive) in the assay on RPMI-8226; 21.1 µM (inactive) in the assay with SNB-75; > 53.7 µM (inactive) in the assay with CAKI-1. In addition, the GI50 in the assay with MDA-MB-231 was > 49.2 µM (inactive); in the assay with 786-0, > 50.1 µM (inactive).

Take `CSc1nc2c(c(=O)[nH]1)N=C(c1ccc(Cl)cc1)CC(c1ccccc1)N2` (stereo not given): the GI50 in the assay with COLO 205 is 19.8 µM (inactive); with OVCAR-3, 15.2 µM (inactive); in the assay with DU-145, 20.7 µM (inactive); in the assay with SNB-19 it was 15.2 µM (inactive); in the assay with SK-MEL-28, 17.3 µM (inactive); in the assay on HCC 2998, 15.5 µM (inactive). Further, the GI50 is 17.9 µM (inactive) with HOP-62; 18.8 µM (inactive) with SW-620; 14.5 µM (inactive) with NCI-H522; 21.3 µM (inactive) with HCT-116; 37.8 µM (inactive) with SR; 17.9 µM (inactive) with MDA-MB-435. In addition, the GI50 in the assay with HT-29 is 17.3 µM (inactive); in the assay with NCI/ADR-RES, 14.5 µM (inactive); in the assay with UACC-62 it was > 10 µM (inactive); with RPMI-8226, 17.4 µM (inactive); in the assay on SNB-75, 12.1 µM (inactive); with CAKI-1, 20 µM (inactive). The figures for the GI50 with MDA-MB-231 and with 786-0 were 16.6 µM (inactive) and 15.7 µM (inactive), respectively.

With `C=C1C(=O)[C@@]23CC[C@@H]4[C@@]5(C)CCC[C@@]4(OC5=O)[C@@]2(C)CC[C@@H]1C3`, the GI50 with COLO 205 was 2.11 µM (inactive); in the assay with OVCAR-3, 1.78 µM (inactive); with DU-145 it was 3.78 µM (inactive); in the assay with SNB-19, 3.23 µM (inactive); in the assay with SK-MEL-28, 2.74 µM (inactive); in the assay on HCC 2998 it was 2.19 µM (inactive). Also, the GI50 with HOP-62 is 2.84 µM (inactive); in the assay on SW-620, 0.667 µM (active); in the assay on NCI-H522, 0.497 µM (active); in the assay with HCT-116, 1.13 µM (inactive); in the assay with SR, 0.955 µM (active); with MDA-MB-435 it was 1.83 µM (inactive). In addition, the GI50 is 0.802 µM (active) with HT-29; 3.08 µM (inactive) in the assay on NCI/ADR-RES; 1.48 µM (inactive) in the assay on UACC-62; 0.508 µM (active) with RPMI-8226; 2.8 µM (inactive) with SNB-75; 0.863 µM (active) in the assay on CAKI-1. Besides, the results for the GI50 in the assay on MDA-MB-231 and with 786-0 were 1.73 µM (inactive) and 0.565 µM (active), respectively.
